Source: ChEMBL document CHEMBL3244115 (1979)

What was measured:
Format in all cases: functional
B16 [1] = test: Antitumor activity against mouse B16 cells allografted in ip dosed BDF mouse assessed as 25% increase in life span administered for 9 days
B16 [2] = test: Antitumor activity against mouse B16 cells allografted in BDF mouse assessed as increase in life span at 4 mg/kg, ip administered for 9 days relative to untreated control; conditions: route intraperitoneal
B16 [3] = test: Antitumor activity against mouse B16 cells allografted in BDF mouse assessed as increase in life span at 8 mg/kg, ip administered for 9 days relative to untreated control; conditions: route intraperitoneal
B16 [4] = test: Antitumor activity against mouse B16 cells allografted in BDF mouse assessed as increase in life span at 25 mg/kg, ip administered for 9 days relative to untreated control; conditions: route intraperitoneal
B16 [5] = test: Antitumor activity against mouse B16 cells allografted in BDF mouse assessed as increase in life span at 100 mg/kg, ip administered for 9 days relative to untreated control; conditions: route intraperitoneal

SMILES	log(1/C) (B16 [1])	T/C (B16 [2])	T/C (B16 [3])	T/C (B16 [4])	T/C (B16 [5])
NC(Cc1ccc(N(CCCl)CCCl)cc1)C(=O)O (stereo not drawn) [SARCOLYSIN]	6.18	236%	–	–	–
O=C(O)CCCc1ccc(N(CCCl)CCCl)cc1 [CHLORAMBUCIL]	4.7	–	133%	–	–
NC(=O)Nc1cc(NC(N)=O)cc(N(CCCl)CCCl)c1	3.69	–	–	108%	–
ClCCN(CCCl)c1ccc(/C=C/c2ccccc2)cc1	2.86	–	–	–	101%
